Measurements from PubChem BioAssay (NCI).
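Step 1: Grow cells in 96-well plates. Step 2: Expose to compound for 48 hours at 5 concentrations. Step 3: Interpolate endpoints linearly; if unreached, use highest concentration. Here, GI50 denotes the concentration required for 50% inhibition of growth. TGI is the concentration that stops growth completely.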

How the values were obtained:
Experiment in all cases: inhibition of tumour cell growth, NCI panel, 48 h
[1] = tested on: HCT-15 colon
[2] = tested on: T-47D breast
[3] = tested on: SF-539 CNS
[4] = tested on: HCT-116 colon
[5] = tested on: CCRF-CEM leukemia
[6] = tested on: COLO 205 colon
[7] = tested on: MOLT-4 leukemia
[8] = tested on: SF-295 CNS
[9] = tested on: SK-MEL-28 melanoma
[10] = tested on: NCI-H226 lung
[11] = tested on: OVCAR-8 ovarian
[12] = tested on: TK-10 renal
[13] = tested on: HOP-92 NSCLC
[14] = tested on: MDA-MB-468 breast
[15] = tested on: UACC-62 melanoma
[16] = tested on: UO-31 renal
[17] = tested on: K-562 leukemia
[18] = tested on: A498 renal
[19] = tested on: BT-549 breast
[20] = tested on: MDA-MB-231 breast
[21] = tested on: HCC-2998 colon
[22] = tested on: M14 melanoma
[23] = tested on: ACHN renal
[24] = tested on: HL-60(TB) leukemia
[25] = tested on: IGROV1 ovarian
[26] = tested on: OVCAR-5 ovarian
[27] = tested on: CAKI-1 renal
[28] = tested on: SNB-75 CNS
[29] = tested on: HS 578T breast
[30] = tested on: EKVX NSCLC
[31] = tested on: SK-MEL-5 melanoma
[32] = tested on: NCI-H522 lung
[33] = tested on: NCI-H23 lung
[34] = tested on: NCI/ADR-RES ovarian
[35] = tested on: SK-OV-3 ovarian
[36] = tested on: SK-MEL-2 melanoma
[37] = tested on: MCF7 breast
[38] = tested on: A549 NSCLC
[39] = tested on: U251 CNS
[40] = tested on: SNB-19 CNS
[41] = tested on: OVCAR-3 ovarian
[42] = tested on: SN12C renal
[43] = tested on: KM12 colon
[44] = tested on: OVCAR-4 ovarian
[45] = tested on: MDA-MB-435
[46] = tested on: HT29 colon
[47] = tested on: 786-0 renal
[48] = tested on: SF-268 CNS
[49] = tested on: NCI-H460 lung
[50] = tested on: RXF 393 renal
[51] = tested on: SW-620 colon
[52] = tested on: MALME-3M melanoma
[53] = tested on: LOX IMVI melanoma
[54] = tested on: UACC-257 melanoma
[55] = tested on: DU-145 prostate
[56] = tested on: HOP-62 NSCLC

For CCn1c(SCC(=O)Nc2ccc(-c3nc4ccccc4[nH]3)cc2)nc2ccccc2c1=O, the GI50 [1] was 1720 nM, the TGI [1] was 3300 nM and the GI50 [2] was 1710 nM. It also gave a TGI [2] of 3490 nM, a GI50 [3] of 1760 nM and a TGI [3] of 3150 nM. The GI50 [4] was 1750 nM, the TGI [4] was 3130 nM and the GI50 [5] was 25000 nM. For the same compound, the TGI [5] was > 100000 nM, the GI50 [6] was 2300 nM and the TGI [6] was 4270 nM. For the same compound, the GI50 [7] was 4210 nM, the TGI [7] was > 100000 nM and the GI50 [8] was 1670 nM. It also gave a TGI [8] of 3090 nM, a GI50 [9] of 1680 nM and a TGI [9] of 3050 nM. For the same compound, the GI50 [10] was 1670 nM, the TGI [10] was 3600 nM and the GI50 [11] was 2090 nM. It also gave a TGI [11] of 4600 nM, a GI50 [12] of 1800 nM and a TGI [12] of 3260 nM. For the same compound, the GI50 [13] was 1660 nM, the TGI [13] was 4050 nM and the GI50 [14] was 1560 nM. The TGI [14] was 3040 nM, the GI50 [15] was 1560 nM and the TGI [15] was 2930 nM. It also gave a GI50 [16] of 1530 nM, a TGI [16] of 2880 nM and a GI50 [17] of 2910 nM. The TGI [17] was > 100000 nM, the GI50 [18] was 1610 nM and the TGI [18] was 3180 nM. The GI50 [19] was 1500 nM, the TGI [19] was 2860 nM and the GI50 [20] was 1820 nM. The TGI [20] was 3350 nM, the GI50 [21] was 2040 nM and the TGI [21] was 4890 nM. It also gave a GI50 [22] of 1700 nM, a TGI [22] of 3150 nM and a GI50 [23] of 1700 nM. The TGI [23] was 3070 nM, the GI50 [24] was 2460 nM and the TGI [24] was 6020 nM. It also gave a GI50 [25] of 1690 nM, a TGI [25] of 3330 nM and a GI50 [26] of 1480 nM. It also gave a TGI [26] of 2980 nM, a GI50 [27] of 1780 nM and a TGI [27] of 3290 nM. The GI50 [28] was 1290 nM, the TGI [28] was 2610 nM and the GI50 [29] was 2060 nM. The TGI [29] was 4660 nM, the GI50 [30] was 1840 nM and the TGI [30] was 3900 nM. For the same compound, the GI50 [31] was 1780 nM, the TGI [31] was 3330 nM and the GI50 [32] was 1770 nM. It also gave a TGI [32] of 3510 nM, a GI50 [33] of 2040 nM and a TGI [33] of 4730 nM. For the same compound, the GI50 [34] was 1820 nM, the TGI [34] was 3650 nM and the GI50 [35] was 1930 nM. For the same compound, the TGI [35] was 3920 nM, the GI50 [36] was 1910 nM and the TGI [36] was 3950 nM. For the same compound, the GI50 [37] was 1550 nM, the TGI [37] was 3000 nM and the GI50 [38] was 1740 nM. The TGI [38] was 3590 nM, the GI50 [39] was 1750 nM and the TGI [39] was 3390 nM. The GI50 [40] was 1750 nM, the TGI [40] was 3310 nM and the GI50 [41] was 1780 nM. The TGI [41] was 3280 nM, the GI50 [42] was 1470 nM and the TGI [42] was 2820 nM. It also gave a GI50 [43] of 2500 nM, a TGI [43] of 6490 nM and a GI50 [44] of 1750 nM. For the same compound, the TGI [44] was 3200 nM, the GI50 [45] was 1730 nM and the TGI [45] was 3110 nM. For the same compound, the GI50 [46] was 1990 nM, the TGI [46] was 4260 nM and the GI50 [47] was 1650 nM. For the same compound, the TGI [47] was 3020 nM, the GI50 [48] was 2060 nM and the TGI [48] was 4560 nM. It also gave a GI50 [49] of 1770 nM, a TGI [49] of 3290 nM and a GI50 [50] of 1710 nM. It also gave a TGI [50] of 3190 nM, a GI50 [51] of 1870 nM and a TGI [51] of 3500 nM. It also gave a GI50 [52] of 1640 nM, a TGI [52] of 3020 nM and a GI50 [53] of 1700 nM. It also gave a TGI [53] of 3100 nM, a GI50 [54] of 1790 nM and a TGI [54] of 3450 nM. For the same compound, the GI50 [55] was 2020 nM, the TGI [55] was 3990 nM and the GI50 [56] was 1700 nM. For the same compound, the TGI [56] was 3180 nM.
